Laboratory results reported in patent US11919883B2, “Metalloenzyme inhibitor compounds” (Ji Xing Pharmaceuticals Hong Kong Limited, priority 2016, dated 2024).

Key:
[1] = biological target: T1, recombinant human CYP11B2 (Homo sapiens, UniProt P19099); experiment: CYP11B2 enzyme assay, enzyme enriched microsomes from V79-4 cells, aldosterone by LC-MS; format: biochemical; details: IC50 ranges; run at Km of 11-deoxycorticosterone; read-out: hCYP11B2 IC50
T1 construct: made in house; host or cells: V79-4 cells (enzyme enriched microsomal fraction of cell lysates)
T1 sequence (P19099 25-503): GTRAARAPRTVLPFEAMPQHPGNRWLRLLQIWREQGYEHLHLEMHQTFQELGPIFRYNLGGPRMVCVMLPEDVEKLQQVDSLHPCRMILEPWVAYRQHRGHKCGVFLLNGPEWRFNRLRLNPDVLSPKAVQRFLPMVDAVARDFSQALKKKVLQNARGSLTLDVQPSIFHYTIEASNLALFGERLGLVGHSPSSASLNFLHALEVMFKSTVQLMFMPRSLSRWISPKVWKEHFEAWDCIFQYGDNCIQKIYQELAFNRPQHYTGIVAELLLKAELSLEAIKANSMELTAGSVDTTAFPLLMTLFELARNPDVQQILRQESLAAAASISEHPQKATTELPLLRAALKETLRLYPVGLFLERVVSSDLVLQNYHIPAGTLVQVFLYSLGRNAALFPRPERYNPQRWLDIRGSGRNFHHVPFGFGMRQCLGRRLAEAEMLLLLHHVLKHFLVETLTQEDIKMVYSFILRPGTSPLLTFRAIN
Description: (§1) An enzyme enriched microsomal fraction was prepared from cellular lysates and subsequently used as the enzyme source for determining inhibitor IC50s. […] Enzyme assays for inhibitor screening employed CYP11B2 and CYP11B1 enzyme enriched microsomes and were run at the Km of the respective substrates. Products of the enzyme reactions, aldosterone for CYP11B2 or cortisol for CYP11B1, were measured by LC-MS. Assays were run under conditions of less than 20% substrate turnover. Inhibitor IC50s were generated by determining the product formation in the absence or presence of inhibitor at various concentrations. In the absence of the test compound, the product formed (Pt) in each data set was defined as 100% activity. In the absence of enzyme, the product formed (Pb) in each data set was defined as 0% activity. The percent activity in the presence of each inhibitor was calculated according to the following equation: % activity=(P−Pb)/(Pt−Pb), where P=the product formed in the presence of the inhibitor.

[2] = biological target: T2, recombinant human CYP11B1 (Homo sapiens, UniProt P15538); experiment: CYP11B1 enzyme assay, enzyme enriched microsomes from V79-4 cells, cortisol by LC-MS; format: biochemical; details: IC50 ranges; run at Km of 11-deoxycortisol; read-out: hCYP11B1 IC50
T2 construct: made in house; host or cells: V79-4 cells (enzyme enriched microsomal fraction of cell lysates)
T2 sequence (P15538 25-503): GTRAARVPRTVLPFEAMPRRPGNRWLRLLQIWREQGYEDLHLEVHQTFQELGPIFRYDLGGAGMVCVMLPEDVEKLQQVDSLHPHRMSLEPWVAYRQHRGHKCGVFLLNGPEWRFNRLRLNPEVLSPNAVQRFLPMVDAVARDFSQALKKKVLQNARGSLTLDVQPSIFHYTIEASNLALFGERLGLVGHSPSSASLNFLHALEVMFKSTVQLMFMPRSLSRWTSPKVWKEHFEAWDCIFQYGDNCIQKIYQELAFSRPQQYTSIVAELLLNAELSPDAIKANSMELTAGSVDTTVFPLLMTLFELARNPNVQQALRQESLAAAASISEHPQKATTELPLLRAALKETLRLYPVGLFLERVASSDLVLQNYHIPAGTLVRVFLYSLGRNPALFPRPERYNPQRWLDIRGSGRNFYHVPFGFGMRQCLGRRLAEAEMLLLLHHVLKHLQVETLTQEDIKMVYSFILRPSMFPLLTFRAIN
Description: as §1

| SMILES | IC50 [1] [nM] | IC50 [2] [nM] |
| --- | --- | --- |
| Fc1cc2nc(-c3cncnc3NCC(F)(F)F)n(C3CC3)c2cc1F [Example 36, 5-(1-Cyclopropyl-5,6-difluoro-1H-benzo[d]imidazol-2-yl)-N-(2,2,2-trifluoroethyl)pyrimidin-4-amine] | 1 to 100 | 100 to 1000 |
| CCn1c(-c2cncnc2C(C)C)nc2ccc(C#N)cc21 [Example 41, 1-Ethyl-2-(4-isopropylpyrimidin-5-yl)-1H-benzo[d]imidazole-6-carbonitrile] | 1 to 100 | 1000 to 10000 |
| FC(F)(F)Oc1ccc2nc(-c3cncnc3)n(C3CC3)c2c1 [Example 42, 1-Cyclopropyl-2-(pyrimidin-5-yl)-6-(trifluoromethoxy)-1H-benzo[d]imidazole] | 100 to 1000 | 1000 to 10000 |
| N#Cc1ccc2nc(-c3cncnc3)n(CC(F)(F)F)c2c1 [Example 43, 2-(Pyrimidin-5-yl)-1-(2,2,2-trifluoroethyl)-1H-benzo[d]imidazole-6-carbonitrile] | 1000 to 10000 | > 10000 |
| CCc1ncncc1-c1nc2cc(F)c(F)cc2n1C1CC1 [Example 45, 1-Cyclopropyl-2-(4-ethylpyrimidin-5-yl)-5,6-difluoro-1H-benzo[d]imidazole] | 1 to 100 | 1000 to 10000 |
| N#Cc1ncncc1-c1nc2cc(F)c(F)cc2n1C1CC1 [Example 46, 5-(1-Cyclopropyl-5,6-difluoro-1H-benzo[d]imidazol-2-yl) pyrimidine-4-carbonitrile] | 1 to 100 | 1000 to 10000 |
| CCn1c(-c2cncnc2)cc2ccc(Cl)cc21 [Example 47, 6-Chloro-1-ethyl-2-(pyrimidin-5-yl)-1H-indole] | 1 to 100 | 100 to 1000 |
| Cc1ncncc1-c1nc2ccc(Cl)nc2n1C1CC1 [Example 48, 5-Chloro-3-cyclopropyl-2-(4-methylpyrimidin-5-yl)-3H-imidazo[4,5-b]pyridine] | 1 to 100 | 1000 to 10000 |
| FC(F)c1ncncc1-c1nc2ccc(Cl)cc2n1C1CC1 [Example 50, 6-Chloro-1-cyclopropyl-2-(4-(difluoromethyl)pyrimidin-5-yl)-1H-benzo[d]imidazole] | 1 to 100 | 1000 to 10000 |
| CCn1c(-c2cncnc2C(F)F)nc2ccc(C#N)cc21 [Example 51, 2-(4-(Difluoromethyl)pyrimidin-5-yl)-1-ethyl-1H-benzo[d]imidazole-6-carbonitrile] | 1 to 100 | > 10000 |
| Cc1ncncc1-c1nc2ccc(C#N)nc2n1C1CC1 [Example 52, 3-Cyclopropyl-2-(4-methylpyrimidin-5-yl)-3H-imidazo[4,5-b]pyridine-5-carbonitrile] | 1 to 100 | 1000 to 10000 |
| CCn1c(-c2cncnc2C(F)(F)F)nc2ccc(C#N)cc21 [Example 53, 2-(4-(trifluoromethyl)pyrimidin-5-yl)-1-ethyl-1H-benzo[d]imidazole-6-carbonitrile] | 1 to 100 | 1000 to 10000 |
| COc1ccc2nc(-c3cncnc3C)n(C3CC3)c2n1 [Example 58, 3-Cyclopropyl-5-methoxy-2-(4-methylpyrimidin-5-yl)-3H-imidazo[4,5-b]pyridine] | 100 to 1000 | > 10000 |
| N#Cc1ccc2nc(-c3cncnc3C(F)(F)F)n(C3CC3)c2c1 [Example 60, 1-Cyclopropyl-2-(4-(trifluoromethyl)pyrimidin-5-yl)-1H-benzo[d]imidazole-6-carbonitrile] | 1 to 100 | 1000 to 10000 |

The next lines start with the values.

| IC50 [1] [nM] | IC50 [2] [nM] | SMILES |
| --- | --- | --- |
| 1000 to 10000 | > 10000 | Fc1ccc2nc(-c3cnc(Cl)nc3Cl)n(C3CC3)c2c1 [Example 35, 1-Cyclopropyl-2-(2,4-dichloropyrimidin-5-yl)-6-fluoro-1H-benzo[d]imidazole] |
| 1 to 100 | 100 to 1000 | Fc1cc2nc(-c3cncnc3NCCC(F)(F)F)n(C3CC3)c2cc1F [Example 37, 5-(1-Cyclopropyl-5,6-difluoro-1H-benzo[d]imidazol-2-yl)-N-(3,3,3-trifluoropropyl)pyrimidin-4-amine] |
| 1 to 100 | 100 to 1000 | CNc1ncncc1-c1nc2ccc(C#N)cc2n1C1CC1 [Example 39, 1-Cyclopropyl-2-(4-(methylamino)pyrimidin-5-yl)-1H-benzo[d]imidazole-6-carbonitrile] |
| 1 to 100 | 100 to 1000 | CCCc1ncncc1-c1nc2ccc(C#N)cc2n1C1CC1 [Example 40, 1-Cyclopropyl-2-(4-propylpyrimidin-5-yl)-1H-benzo[d]imidazole-6-carbonitrile] |
| 100 to 1000 | > 10000 | Cc1ncncc1-c1nc2ccc(C#N)cc2n1CC(F)(F)F [Example 49, 2-(4-Methylpyrimidin-5-yl)-1-(2,2,2-trifluoroethyl)-1H-benzo[d]imidazole-6-carbonitrile] |
| 1 to 100 | 1000 to 10000 | N#Cc1ccc2nc(-c3cncnc3C(F)F)n(C3CC3)c2c1 [Example 54, 1-Cyclopropyl-2-(4-(difluoromethyl)pyrimidin-5-yl)-1H-benzo[d]imidazole-6-carbonitrile] |
| 100 to 1000 | > 10000 | Cc1ncncc1-c1nc2cnc(Cl)cc2n1C1CC1 [Example 55, 6-Chloro-1-cyclopropyl-2-(4-methylpyrimidin-5-yl)-1H-imidazo[4,5-c]pyridine] |
| 100 to 1000 | > 10000 | Cc1ncncc1-c1nc2cnc(C#N)cc2n1C1CC1 [Example 56, 1-Cyclopropyl-2-(4-methylpyrimidin-5-yl)-1H-imidazo[4,5-c]pyridine-6-carbonitrile] |
| 1000 to 10000 | > 10000 | c1ncc(-c2nc3c(n2C2CC2)CCCC3)cn1 [Example 57, 1-Cyclopropyl-2-(pyrimidin-5-yl)-4,5,67-tetrahydro-1H-benzo[d]imidazole] |
| 1000 to 10000 | > 10000 | CC(=O)NCCc1ncncc1-c1nc2cc(F)c(F)cc2n1C1CC1 [Example 59, N-(2-(5-(1-Cyclopropyl-5,6-difluoro-1H-benzo[d]imidazol-2-yl)pyrimidin-4-yl)ethyl)acetamide] |
| 1 to 100 | 1000 to 10000 | FC(F)(F)c1ncncc1-c1nc2ccc(Cl)nc2n1C1CC1 [Example 61, 5-Chloro-3-cyclopropyl-2-(4-(trifluoromethyl)pyrimidin-5-yl)-3H-imidazo[4,5-b]pyridine] |
| 100 to 1000 | 1000 to 10000 | FC(F)c1ncncc1-c1nc2ccc(Cl)nc2n1C1CC1 [Example 62, 5-Chloro-3-cyclopropyl-2-(4-(difluoromethyl)pyrimidin-5-yl)-3H-imidazo[4,5-b]pyridine] |
| 1 to 100 | 1000 to 10000 | N#Cc1ccc2nc(-c3cncnc3C(F)F)n(C3CC3)c2n1 [Example 63, 3-Cyclopropyl-2-(4-(difluoromethyl)pyrimidin-5-yl)-3H-imidazo[4,5-b]pyridine-5-carbonitrile] |
| 1 to 100 | 1000 to 10000 | CC(F)(F)c1ncncc1-c1nc2ccc(C#N)cc2n1C1CC1 [Example 64, 1-Cyclopropyl-2-(4-(1,1-difluoroethyl)pyrimidin-5-yl)-1H-benzo[d]imidazole-6-carbonitrile] |
| 1 to 100 | 1000 to 10000 | N#Cc1ccc2nc(-c3cncnc3C(F)(F)F)n(C3CC3)c2n1 [Example 65, 3-Cyclopropyl-2-(4-(trifluoromethyl)pyrimidin-5-yl)-3H-imidazo[4,5-b]pyridine-5-carbonitrile] |
